Tests used:
[1] = Dissolution of coumarin from PL75D/TP blend cap-coated shims in PBS; type: physicochemical; settings: FIG. 19
Experimental: P[…] was dried at 70° C. at reduced pressure overnight. The dried pellets were compressed between two plates that were pre-heated to 230° C. and maintained for about 5 minutes. After the sample was cooled down to room temperature, it was placed in a vial filled with THF and stirred until dissolved (by visual observation). […] Coumarin was also dissolved in THF. The concentrations of all the solutions were about 1 wt-%. TL solution and coumarin solution were mixed at a weigh ratio of 1:1. This mixture is the base coating solution of a reservoir system. TP solution and P[…] solution were mixed at various weight ratios to make five different mixtures with the weight ratios of TP to P[…] being 100:0, 75:25, 50:50, 25:75, and 0:100. These solutions are referred to herein as cap coating solutions of the reservoir system. Dissolution samples were prepared with stainless steel (316L) shims (12.1×38.1 mm^2) that were cleaned by rinsing with THF. The cleaned shims were coated with the […] solution. The coated shims were allowed to dry overnight under nitrogen. […] This thermal treatment led to formation of a primer on the surface of the shims that promoted their adhesion with polymer/active agent layers. […] The concentration of coumarin in all these solutions was measured with a liquid chromatography (HP 1090) that was equipped with a UV detector. […]

[2] = Merck Index; cited from earlier work

O=c1ccc2ccccc2o1 [coumarin]
Release rate, pure cap-coat polymers compared ([1]; 100% PL75D versus 100% TP cap coat): release much faster from a 100% PL75D coated shim than that from 100% TP coated shim | Release rates from the PL75D/TP blends ([1]; cap coat blends): between that from the two pure polymers | Volume of cold water that dissolves one gram [2]: 400 mL

From patent publication US20040086569A1, “Active agent delivery systems, medical devices, and methods” (Medtronic, Inc., priority 2002, published 2004)
